Reference: ChEMBL document CHEMBL1201862, “PubChem BioAssay data set” (2004)
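How tested: cells in 96-well plates exposed to compound for 48 hours at five concentrations. GI50: concentration for 50% inhibition of growth.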 The source made the active and inactive calls. No stated cut-off is given here; in the data, active = GI50 up to about 1.1 µM and inactive = higher.

Tests used:
Experiment in all cases: growth of human tumour cells (NCI), 48 h
ACHN = system: ACHN
CAKI-1 = system: CAKI-1
CCRF-CEM = system: CCRF-CEM
HL-60 = system: HL-60
HOP-62 = system: HOP-62
HOP-92 = system: HOP-92
K562 = system: K562
KM12 = system: KM12
LOX IMVI = system: LOX IMVI
M14 = system: M14
Malme-3M = system: Malme-3M
NCI-H23 = system: NCI-H23
OVCAR-5 = system: OVCAR-5
RPMI-8226 = system: RPMI-8226
SK-OV-3 = system: SK-OV-3
SR = system: SR
TK-10 = system: TK-10
DU-145 = system: DU-145
MDA-N = system: MDA-N
BT-549 = system: BT-549

Compound	GI50 (ACHN)	GI50 (CAKI-1)	GI50 (CCRF-CEM)	GI50 (HL-60)	GI50 (HOP-62)	GI50 (HOP-92)	GI50 (K562)	GI50 (KM12)	GI50 (LOX IMVI)	GI50 (M14)	GI50 (Malme-3M)	GI50 (NCI-H23)	GI50 (OVCAR-5)	GI50 (RPMI-8226)	GI50 (SK-OV-3)	GI50 (SR)	GI50 (TK-10)	GI50 (DU-145)	GI50 (MDA-N)	GI50 (BT-549)
N#CC(NNC(=O)c1ccccc1O)c1ccc(O)cc1 (configuration not stated)	2.33 µM (inactive)	6 µM (inactive)	4.93 µM (inactive)	5.32 µM (inactive)	22.5 µM (inactive)	3.48 µM (inactive)	3.1 µM (inactive)	4.94 µM (inactive)	5.83 µM (inactive)	6.93 µM (inactive)	29.6 µM (inactive)	8.05 µM (inactive)	17.6 µM (inactive)	10.2 µM (inactive)	6.44 µM (inactive)	2.8 µM (inactive)	39.5 µM (inactive)	–	–	–
Nc1nc(O)c([N+](=O)[O-])c(NCCOCP(=O)(O)O)n1	> 100 µM (inactive)	–	> 100 µM (inactive)	> 100 µM (inactive)	> 100 µM (inactive)	> 100 µM (inactive)	> 100 µM (inactive)	> 100 µM (inactive)	> 100 µM (inactive)	> 100 µM (inactive)	> 100 µM (inactive)	> 100 µM (inactive)	–	> 100 µM (inactive)	> 100 µM (inactive)	> 100 µM (inactive)	> 100 µM (inactive)	–	–	–
COC(=O)c1c(C(=O)OC)c2ccc(-c3ccc(Cl)cc3)nn2c1C(=O)c1ccc([N+](=O)[O-])cc1	43 µM (inactive)	32.9 µM (inactive)	17.1 µM (inactive)	< 0.01 µM (active)	> 100 µM (inactive)	10.8 µM (inactive)	14.2 µM (inactive)	> 100 µM (inactive)	39 µM (inactive)	40.6 µM (inactive)	–	> 100 µM (inactive)	> 100 µM (inactive)	16.7 µM (inactive)	> 100 µM (inactive)	–	28.1 µM (inactive)	> 100 µM (inactive)	66.2 µM (inactive)	–
CC(C)C(Sc1nc(-c2ccccc2)c(-c2ccccc2)[nH]1)C(=O)N/N=C/c1ccc(Cl)cc1 (configuration not stated)	31.9 µM (inactive)	44.5 µM (inactive)	21.7 µM (inactive)	26.3 µM (inactive)	23.2 µM (inactive)	21 µM (inactive)	–	19.8 µM (inactive)	15.5 µM (inactive)	17.7 µM (inactive)	23.7 µM (inactive)	22.3 µM (inactive)	22.6 µM (inactive)	19.7 µM (inactive)	27.2 µM (inactive)	32.4 µM (inactive)	21.5 µM (inactive)	–	–	–
NC1CC=C(COC(=O)C(O)(c2ccccc2)C2CC2)CC1 (configuration not stated)	> 100 µM (inactive)	> 100 µM (inactive)	–	–	> 100 µM (inactive)	–	–	> 100 µM (inactive)	> 100 µM (inactive)	> 100 µM (inactive)	> 100 µM (inactive)	> 100 µM (inactive)	> 100 µM (inactive)	> 100 µM (inactive)	> 100 µM (inactive)	> 100 µM (inactive)	> 100 µM (inactive)	> 100 µM (inactive)	> 100 µM (inactive)	–
CCC1(c2c(F)c(F)c(N)c(F)c2F)CCC(=O)NC1=O (configuration not stated)	> 100 µM (inactive)	> 100 µM (inactive)	> 100 µM (inactive)	> 100 µM (inactive)	> 100 µM (inactive)	> 100 µM (inactive)	> 100 µM (inactive)	> 100 µM (inactive)	> 100 µM (inactive)	> 100 µM (inactive)	> 100 µM (inactive)	> 100 µM (inactive)	> 100 µM (inactive)	> 100 µM (inactive)	> 100 µM (inactive)	> 100 µM (inactive)	> 100 µM (inactive)	–	–	–
O=C(CC(=O)n1nc(-c2ccccc2)c(/N=N/c2ccccc2Cl)c1-c1ccccc1)Nc1ccc(Cl)cc1	> 100 µM (inactive)	> 100 µM (inactive)	> 44.9 µM (inactive)	> 42.8 µM (inactive)	> 100 µM (inactive)	> 100 µM (inactive)	> 53.1 µM (inactive)	> 100 µM (inactive)	> 44.4 µM (inactive)	> 100 µM (inactive)	> 100 µM (inactive)	> 100 µM (inactive)	> 100 µM (inactive)	> 49.3 µM (inactive)	> 100 µM (inactive)	> 100 µM (inactive)	> 96.2 µM (inactive)	–	–	–
CCP(C)(=O)CC	> 100 µM (inactive)	> 100 µM (inactive)	> 100 µM (inactive)	> 100 µM (inactive)	> 100 µM (inactive)	> 100 µM (inactive)	> 100 µM (inactive)	> 100 µM (inactive)	> 100 µM (inactive)	> 100 µM (inactive)	> 100 µM (inactive)	> 100 µM (inactive)	> 100 µM (inactive)	> 100 µM (inactive)	> 100 µM (inactive)	> 100 µM (inactive)	> 100 µM (inactive)	–	–	–
O=C1C(=O)N(c2ccc(Cl)c(Cl)c2)C(=O)C(=O)C1c1nc2ccccc2o1	> 100 µM (inactive)	> 100 µM (inactive)	–	22.9 µM (inactive)	> 100 µM (inactive)	> 100 µM (inactive)	36.6 µM (inactive)	> 100 µM (inactive)	> 100 µM (inactive)	80.4 µM (inactive)	87.9 µM (inactive)	68.7 µM (inactive)	> 100 µM (inactive)	24.7 µM (inactive)	> 100 µM (inactive)	30 µM (inactive)	> 100 µM (inactive)	–	–	–
NC1=C(N2CCCCC2)C(=O)NC2=N/C(=C\c3ccco3)C(=O)N21	> 100 µM (inactive)	> 100 µM (inactive)	> 100 µM (inactive)	> 100 µM (inactive)	–	> 100 µM (inactive)	> 100 µM (inactive)	> 100 µM (inactive)	> 100 µM (inactive)	> 100 µM (inactive)	> 100 µM (inactive)	> 100 µM (inactive)	> 100 µM (inactive)	> 100 µM (inactive)	> 100 µM (inactive)	88.3 µM (inactive)	> 100 µM (inactive)	> 100 µM (inactive)	> 100 µM (inactive)	–
CCOc1cccc(-c2cc(O)c3cc4c(cc3n2)OCO4)c1	0.51 µM (active)	0.2 µM (active)	0.084 µM (active)	0.044 µM (active)	0.621 µM (active)	0.264 µM (active)	0.0516 µM (active)	0.267 µM (active)	0.233 µM (active)	0.371 µM (active)	0.141 µM (active)	0.396 µM (active)	–	0.318 µM (active)	0.166 µM (active)	0.0476 µM (active)	0.421 µM (active)	0.335 µM (active)	0.0214 µM (active)	–
CC1(C)CC[C@]2(C(=O)O)CC[C@]3(C)C(=CCC4=C5C[C@H](O)[C@H](O)[C@@](C)(CO)[C@@]5(C)CC[C@]43C)[C@@H]2C1	> 100 µM (inactive)	28.1 µM (inactive)	0.944 µM (active)	6.05 µM (inactive)	> 100 µM (inactive)	> 100 µM (inactive)	62.8 µM (inactive)	38.9 µM (inactive)	35.7 µM (inactive)	66.2 µM (inactive)	69.2 µM (inactive)	37.9 µM (inactive)	> 100 µM (inactive)	43.8 µM (inactive)	> 100 µM (inactive)	> 100 µM (inactive)	53.6 µM (inactive)	33.4 µM (inactive)	47.4 µM (inactive)	–
Cc1c(C)c(S(=O)(=O)N(CCCCN)OCCCN)c(C)c2c1OC(C)(C)CC2	20.8 µM (inactive)	32.1 µM (inactive)	16.4 µM (inactive)	1 µM (active)	13.4 µM (inactive)	17.8 µM (inactive)	32.4 µM (inactive)	17.1 µM (inactive)	6.22 µM (inactive)	28.6 µM (inactive)	–	16.4 µM (inactive)	15.1 µM (inactive)	23.3 µM (inactive)	15.6 µM (inactive)	42.7 µM (inactive)	14.5 µM (inactive)	23.7 µM (inactive)	22.8 µM (inactive)	–
CN(C)CCCNC(=O)c1cc(NC(=O)c2cc(NC(=O)CCCn3c4ccccc4c4ccccc43)cn2C)cn1C	27.2 µM (inactive)	19.1 µM (inactive)	7.71 µM (inactive)	11.6 µM (inactive)	13.6 µM (inactive)	14.7 µM (inactive)	3.13 µM (inactive)	6.28 µM (inactive)	6.59 µM (inactive)	4.41 µM (inactive)	6.03 µM (inactive)	14.8 µM (inactive)	20.1 µM (inactive)	3.08 µM (inactive)	12 µM (inactive)	–	12.4 µM (inactive)	17.9 µM (inactive)	–	15 µM (inactive)
O=C(CC(C(=O)c1ccsc1)c1ccccc1)c1ccccc1 (configuration not stated)	> 100 µM (inactive)	> 100 µM (inactive)	69.2 µM (inactive)	0.484 µM (active)	> 100 µM (inactive)	> 100 µM (inactive)	> 100 µM (inactive)	49.9 µM (inactive)	> 100 µM (inactive)	> 100 µM (inactive)	–	0.0217 µM (active)	> 100 µM (inactive)	> 100 µM (inactive)	> 100 µM (inactive)	> 100 µM (inactive)	> 100 µM (inactive)	> 100 µM (inactive)	> 100 µM (inactive)	–
C#CCOCn1cnc2c(N)ncnc21	> 100 µM (inactive)	> 100 µM (inactive)	> 100 µM (inactive)	–	> 100 µM (inactive)	> 100 µM (inactive)	> 100 µM (inactive)	> 100 µM (inactive)	> 100 µM (inactive)	> 100 µM (inactive)	> 100 µM (inactive)	> 100 µM (inactive)	> 100 µM (inactive)	> 100 µM (inactive)	> 100 µM (inactive)	> 100 µM (inactive)	> 100 µM (inactive)	–	–	–
